PubChem BioAssay (NCI)
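In this assay, cells in 96-well plates receive the compound at five concentrations for 48 hours. Endpoints are linearly interpolated between the surrounding concentrations. TGI denotes the concentration required for complete inhibition of growth.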

Legend:
Assay in all cases: DTP human tumour cell line panel, 48 h
[1] = test system: UACC-257 melanoma
[2] = test system: HT29 colon
[3] = test system: OVCAR-8 ovarian
[4] = test system: COLO 205 colon
[5] = test system: U251 CNS
[6] = test system: SF-268 CNS
[7] = test system: EKVX NSCLC
[8] = test system: SNB-19 CNS
[9] = test system: MDA-MB-435
[10] = test system: UACC-62 melanoma
[11] = test system: 786-0 renal
[12] = test system: LOX IMVI melanoma
[13] = test system: MDA-MB-231 breast
[14] = test system: SF-539 CNS
[15] = test system: SF-295 CNS
[16] = test system: OVCAR-4 ovarian
[17] = test system: HS 578T breast
[18] = test system: MCF7 breast
[19] = test system: OVCAR-3 ovarian
[20] = test system: PC-3 prostate
[21] = test system: NCI-H522 lung
[22] = test system: TK-10 renal
[23] = test system: SK-MEL-28 melanoma
[24] = test system: HL-60(TB) leukemia
[25] = test system: HCT-15 colon
[26] = test system: M14 melanoma
[27] = test system: A549 NSCLC
[28] = test system: HCT-116 colon
[29] = test system: SK-OV-3 ovarian
[30] = test system: DU-145 prostate
[31] = test system: HOP-92 NSCLC
[32] = test system: RXF 393 renal
[33] = test system: MOLT-4 leukemia
[34] = test system: KM12 colon
[35] = test system: OVCAR-5 ovarian
[36] = test system: NCI-H460 lung
[37] = test system: SK-MEL-5 melanoma
[38] = test system: ACHN renal
[39] = test system: MALME-3M melanoma
[40] = test system: HOP-62 NSCLC
[41] = test system: T-47D breast
[42] = test system: IGROV1 ovarian
[43] = test system: RPMI-8226 leukemia
[44] = test system: SW-620 colon
[45] = test system: SNB-75 CNS
[46] = test system: K-562 leukemia
[47] = test system: CAKI-1 renal
[48] = test system: NCI-H226 lung
[49] = test system: SN12C renal
[50] = test system: UO-31 renal
[51] = test system: SK-MEL-2 melanoma
[52] = test system: A498 renal
[53] = test system: NCI/ADR-RES ovarian
[54] = test system: HCC-2998 colon
[55] = test system: MDA-N
[56] = test system: NCI-H23 lung
[57] = test system: BT-549 breast
[58] = test system: CCRF-CEM leukemia
[59] = test system: SR leukemia

SMILES: N#Cc1c(Cl)cc(C#N)n2c1nc1ccccc12
- TGI [1]: 29.7 µM
- TGI [2]: 21.4 µM
- TGI [3]: 21 µM
- TGI [4]: 15.3 µM
- TGI [5]: 36 µM
- TGI [6]: 13.6 µM
- TGI [7]: 39.5 µM
- TGI [8]: > 84.7 µM
- TGI [9]: 26.2 µM
- TGI [10]: 38.4 µM
- TGI [11]: 7.08 µM
- TGI [12]: 7.02 µM
- TGI [13]: 24 µM
- TGI [14]: 19.1 µM
- TGI [15]: 30.1 µM
- TGI [16]: 41.9 µM
- TGI [17]: 83.7 µM
- TGI [18]: 24.9 µM
- TGI [19]: 10.7 µM
- TGI [20]: 32.6 µM
- TGI [21]: 5.69 µM
- TGI [22]: 26.4 µM
- TGI [23]: 26.5 µM
- TGI [24]: 3.03 µM
- TGI [25]: 21.2 µM
- TGI [26]: 22.2 µM
- TGI [27]: 22.2 µM
- TGI [28]: 12.8 µM
- TGI [29]: 51.3 µM
- TGI [30]: 41.3 µM
- TGI [31]: 16.8 µM
- TGI [32]: 28.7 µM
- TGI [33]: 5.4 µM
- TGI [34]: 23.2 µM
- TGI [35]: 30.3 µM
- TGI [36]: 35.4 µM
- TGI [37]: 29.3 µM
- TGI [38]: 28.7 µM
- TGI [39]: 18.5 µM
- TGI [40]: 44.1 µM
- TGI [41]: 11.1 µM
- TGI [42]: 28.3 µM
- TGI [43]: 17.2 µM
- TGI [44]: 9.1 µM
- TGI [45]: 38.7 µM
- TGI [46]: 21.1 µM
- TGI [47]: 16.7 µM
- TGI [48]: 71 µM
- TGI [49]: 38.6 µM
- TGI [50]: 19 µM
- TGI [51]: 33 µM
- TGI [52]: 49.9 µM
- TGI [53]: 42.4 µM
- TGI [54]: 40.9 µM
- TGI [55]: 22.7 µM
- TGI [56]: 26.8 µM
- TGI [57]: 18.4 µM

SMILES: O/N=C(\CC(O)(C(F)(F)F)C(F)(F)F)c1cccs1
- TGI [1]: > 10 µM
- TGI [2]: > 10 µM
- TGI [3]: > 10 µM
- TGI [4]: > 10 µM
- TGI [5]: > 10 µM
- TGI [6]: > 10 µM
- TGI [7]: > 10 µM
- TGI [8]: > 10 µM
- TGI [9]: > 10 µM
- TGI [10]: > 10 µM
- TGI [11]: > 10 µM
- TGI [12]: > 10 µM
- TGI [13]: > 10 µM
- TGI [14]: > 10 µM
- TGI [15]: > 10 µM
- TGI [16]: > 10 µM
- TGI [17]: > 10 µM
- TGI [18]: > 10 µM
- TGI [19]: > 10 µM
- TGI [20]: > 10 µM
- TGI [21]: > 10 µM
- TGI [22]: > 10 µM
- TGI [23]: > 10 µM
- TGI [24]: > 10 µM
- TGI [25]: > 10 µM
- TGI [26]: > 10 µM
- TGI [27]: > 10 µM
- TGI [28]: > 10 µM
- TGI [29]: > 10 µM
- TGI [30]: > 10 µM
- TGI [31]: > 10 µM
- TGI [32]: > 10 µM
- TGI [33]: > 10 µM
- TGI [34]: > 10 µM
- TGI [35]: > 10 µM
- TGI [36]: > 10 µM
- TGI [37]: > 10 µM
- TGI [38]: > 10 µM
- TGI [39]: > 10 µM
- TGI [40]: > 10 µM
- TGI [41]: > 10 µM
- TGI [42]: > 10 µM
- TGI [43]: > 10 µM
- TGI [58]: > 10 µM
- TGI [44]: > 10 µM
- TGI [45]: > 10 µM
- TGI [46]: > 10 µM
- TGI [47]: > 10 µM
- TGI [48]: > 10 µM
- TGI [49]: > 10 µM
- TGI [50]: > 10 µM
- TGI [51]: > 10 µM
- TGI [52]: > 10 µM
- TGI [53]: > 10 µM
- TGI [54]: > 10 µM
- TGI [55]: > 10 µM
- TGI [56]: > 10 µM
- TGI [57]: > 10 µM

SMILES: CCOP(=O)(C/C=C/Cn1ncc(=O)[nH]c1=O)OCC
- TGI [1]: > 100 µM
- TGI [2]: > 100 µM
- TGI [3]: > 100 µM
- TGI [4]: > 100 µM
- TGI [5]: > 100 µM
- TGI [6]: > 100 µM
- TGI [7]: > 100 µM
- TGI [8]: > 100 µM
- TGI [9]: > 100 µM
- TGI [12]: > 100 µM
- TGI [13]: > 100 µM
- TGI [14]: > 100 µM
- TGI [16]: > 100 µM
- TGI [17]: > 100 µM
- TGI [18]: > 100 µM
- TGI [19]: > 100 µM
- TGI [20]: > 100 µM
- TGI [21]: > 100 µM
- TGI [22]: > 100 µM
- TGI [23]: > 100 µM
- TGI [24]: > 100 µM
- TGI [25]: > 100 µM
- TGI [26]: > 100 µM
- TGI [27]: > 100 µM
- TGI [30]: > 100 µM
- TGI [31]: > 100 µM
- TGI [32]: > 100 µM
- TGI [33]: > 100 µM
- TGI [34]: > 100 µM
- TGI [35]: > 100 µM
- TGI [36]: > 100 µM
- TGI [37]: > 100 µM
- TGI [38]: > 100 µM
- TGI [39]: > 100 µM
- TGI [40]: > 100 µM
- TGI [41]: > 100 µM
- TGI [42]: > 100 µM
- TGI [43]: > 100 µM
- TGI [58]: > 100 µM
- TGI [44]: > 100 µM
- TGI [45]: > 100 µM
- TGI [46]: > 100 µM
- TGI [47]: > 100 µM
- TGI [48]: > 100 µM
- TGI [49]: > 100 µM
- TGI [50]: > 100 µM
- TGI [51]: > 100 µM
- TGI [52]: > 100 µM
- TGI [53]: > 100 µM
- TGI [54]: > 100 µM
- TGI [55]: > 100 µM
- TGI [57]: > 100 µM

SMILES: CC1(C)Cc2c(sc3[nH]c(=S)[nH]c(=S)c23)CS1
- TGI [1]: 73.8 µM
- TGI [2]: > 100 µM
- TGI [3]: > 100 µM
- TGI [4]: > 100 µM
- TGI [5]: > 100 µM
- TGI [6]: > 100 µM
- TGI [8]: > 100 µM
- TGI [9]: > 100 µM
- TGI [10]: 67.4 µM
- TGI [11]: > 100 µM
- TGI [12]: > 100 µM
- TGI [13]: > 100 µM
- TGI [14]: > 100 µM
- TGI [16]: 65.8 µM
- TGI [17]: > 100 µM
- TGI [18]: > 100 µM
- TGI [59]: > 100 µM
- TGI [19]: 82.9 µM
- TGI [20]: > 100 µM
- TGI [22]: > 100 µM
- TGI [23]: > 100 µM
- TGI [24]: 92.7 µM
- TGI [25]: > 100 µM
- TGI [26]: > 100 µM
- TGI [27]: > 100 µM
- TGI [28]: > 100 µM
- TGI [29]: 99.7 µM
- TGI [30]: > 100 µM
- TGI [31]: 50.4 µM
- TGI [32]: > 100 µM
- TGI [33]: > 100 µM
- TGI [34]: > 100 µM
- TGI [36]: > 100 µM
- TGI [37]: > 100 µM
- TGI [39]: 75.6 µM
- TGI [40]: > 100 µM
- TGI [41]: 61.4 µM
- TGI [42]: > 100 µM
- TGI [43]: 68.5 µM
- TGI [58]: > 100 µM
- TGI [44]: > 100 µM
- TGI [46]: > 100 µM
- TGI [47]: > 100 µM
- TGI [48]: > 100 µM
- TGI [49]: > 100 µM
- TGI [50]: > 100 µM
- TGI [51]: > 100 µM
- TGI [52]: > 100 µM
- TGI [53]: > 100 µM
- TGI [55]: > 100 µM
- TGI [56]: > 100 µM
- TGI [57]: > 100 µM
